Measured values as given in patent publication US10040813B2, “Compounds as positive allosteric modulators for erythropoietin and erythropoietin receptor to treat erythropoietin deficiency diseases” (ACAHEALTH PHARMA & BIOTECH CO., LTD., priority 2015, dated 2018).
“Also recorded” adds a separate entry of the source.

Test system: cisplatin-induced nephropathy in mice
Assay: Cisplatin-induced nephropathy mouse model (anaemia and renal function)
Type: in vivo
Protocol: Forty six-to-seven-week-old C57Bl/6J male mice were i.p. injected with three doses of cisplatin (Sigma-Aldrich), following the scheme of 7, 6, and 6 mg·kg-1 body weight, at 4 to 5 day intervals, and the normal group (n=4) was injected with saline (FIG. 1 scheme). On day 12, the collected serum samples were assayed for the urea nitrogen content (BUN). Mice with BUN values greater than 80 mg·dL-1 were chosen for the experiment. An average seventy percent of injected mice were successful induced renal dysfunction, and the ineffective mice were excluded from the EH202 treating experiments. The mice were subsequently divided randomly into 4 cohorts comprising the control (Ctrl, n=6) and three EH202-treated groups (n=5 to 6 for each group) for an additional 2 weeks. Blood samples from all the mice were collected every 5 days. The RBC numbers were determined from the complete blood cell count using a Sysmex Kx-21 haematology analyser (Sysmex America), and the serum BUN and creatinine levels were determined using a commercial kit (Randox Laboratories Ltd. United Kingdom). All results are expressed as the mean±SEM. The statistical analysis was performed using Student's t-test. One-way ANOVA was used to examine the differences across the animal experimental groups. The posthoc differences between the means of the experimental groups were determined via Tukey's test. P<0.05 was considered significant.

SMILES: OC[C@H]1OC(Oc2c(/C=C/c3ccc(F)cc3)ccc3ccccc23)[C@H](O)[C@@H](O)[C@@H]1O (stereo partly drawn) [EH202, (Naphthanol-4′fluoro-stilbenzene)-1-O-β-D-glycoside]
- BUN levels (10, 30 and 90 mg·kg-1 treatment groups, day 29, FIG. 2C): accelerates the recovery from renal dysfunction; also recorded: significantly recovered
- recovery of anaemia (HGB level, RBC numbers) (30 and 90 mg·kg-1, FIGS. 2D and 2E): increasing recovery of anaemia
- recovery of renal dysfunction (creatinine level in the peripheral blood) (30 and 90 mg·kg-1 for 10 days, day 24, FIG. 2B): accelerates the recovery from renal dysfunction; also recorded: almost complete recovery of renal dysfunction
- recovery from anemia, hemoglobin (HGB) level in the peripheral blood (day 24, FIG. 2D): accelerates the recovery from anemia
- recovery from anemia, RBC numbers in the peripheral blood (day 29, FIG. 2E): accelerates the recovery from anemia
